We go through 13 compounds from patent US5110816A, “3-[2-(4-arylpiperazin-1-yl)ethoxy]-p-cymene, the method of preparing and composition thereof” (Institut de Recherches Chimiques et Biologiques Appliquees …, priority 1988, dated 1992).

Counter-ions that a name gives are not always drawn.

By LD50 is commonly meant the dose at which mortality reaches 50%. Low values mean a more toxic substance, high ones a less toxic substance.

The subject of one data set is ureteral pressure. Description: Norepinephrine-induced ureteral hyperpressure in anesthetized rabbits. The class given is in vivo. The conditions noted are these: I.V. The text has this: (§1) 5. Activity on Ureteral Hyperpressure in Rabbits
(§2) An increase in the arterial pressure and the ureteral pressure is induced in anesthetized rabbits by an intravenous injection of norepinephrine. These hyperpressures can be inhibited by the prior administration of molecules with alpha-blocking potential.
Turning to `CCOc1ccccc1N1CCN(CCOc2cc(C)ccc2C(C)C)CC1` [B 1178, 3-[2-(4-o-ethoxyphenylpiperazin-1-yl)ethoxy]-p-cymene dihydrochloride], the “ratio of ID50 arterial pressure to ID50 ureteral pressure” value worked out at 10.6.
Still for that read-out and setting: the value for `Cc1ccc(C(C)C)c(OCCN2CCN(c3ccccc3O)CC2)c1` [B.1338] was 11.8; that for `CCCOc1ccccc1N1CCN(CCOc2cc(C)ccc2C(C)C)CC1` [B.1358] was 4.1.

The data set is the same for the next values; noted with them: Oryctolagus cuniculus, iv, norepinephrine i.v., 50% inhibition of increase in ureteral pressure, read-out: Ureteral pressure ID50.
With `CCOc1ccccc1N1CCN(CCOc2cc(C)ccc2C(C)C)CC1` [B 1178, 3-[2-(4-o-ethoxyphenylpiperazin-1-yl)ethoxy]-p-cymene dihydrochloride], the ED50 came to 0.37 mg/kg.
As to `Cc1ccc(C(C)C)c(OCCN2CCN(c3ccccc3O)CC2)c1` [B.1338], the ED50 is 1.6 mg/kg.
Same read-out and setting: the value for `CCCOc1ccccc1N1CCN(CCOc2cc(C)ccc2C(C)C)CC1` [B.1358] was 1.22 mg/kg.

Test system in a further data set: not listed separately
The data set can be described thus: Solubility remark in the isolated rat vas deferens test (Table II). The class given is physicochemical. To be noted: under pA2 in Table II, value N.D.
`Cc1ccc(C(C)C)c(OCCN2CCN(c3ccc(Cl)cc3C)CC2)c1` [B.1152, 3-[2-4-(4-chloro-2-methyl)phenylpiperazine-1-yl)ethoxy]-p-cymene hydrochloride]: the solubility remark entry is “insoluble”.
Same read-out and setting: the value for `Cc1ccc(C(C)C)c(OCCN2CCN(c3ccc(Cl)c(Cl)c3)CC2)c1` [B.1184, 3-[2-4-(3,4-dichloro)phenylpiperazin-1-yl)ethoxy]-p-cymene hydrochloride] was “insoluble”.

Test system in a further data set: not listed separately
Description: Acute toxicity in mice, single oral dose. The conditions noted are these: mouse, in vivo, p.o., 14-day observation. Here is the method:
The products were administered orally to mice in a single dose. After a 14-day observation period, the mortality was recorded.
The results are expressed in the form of the 50% lethal dose (LD50) in mg.kg^-1.
`CCOc1ccccc1N1CCN(CCOc2cc(C)ccc2C(C)C)CC1` [B 1178, 3-[2-(4-o-ethoxyphenylpiperazin-1-yl)ethoxy]-p-cymene dihydrochloride]: the LD50 at 336 h is > 1000 mg/kg.
Consider `Cc1ccc(C(C)C)c(OCCN2CCN(c3ccccc3Cl)CC2)c1` [B 1299, 3-[2-(4-o-chlorophenylpiperazin-1-yl)ethoxy]-p-cymene hydrochloride], for which the LD50 at 336 h was > 1000 mg/kg.
`COc1ccc(N2CCN(CCOc3cc(C)ccc3C(C)C)CC2)c(OC)c1` [B 1362]: the median lethal dose (LD50) at 336 h stood at 897 mg/kg.
The same measure, in the same setting: the value for `Cc1ccc(C(C)C)c(OCCN2CCN(c3ccc(F)cc3)CC2)c1` [B.1055, 3-[2-(4-p-fluorophenylpiperazin-1-yl)ethoxy]-p-cymene dihydrochloride] was > 1000 mg/kg.
On the same count and under the same terms, the value for `Cc1ccc(C(C)C)c(OCCN2CCN(c3ccccc3)CC2)c1` [B.1057, 3-[2-(4-phenylpiperazin-1-yl)ethoxy]-p-cymene dihydrochloride] was > 1000 mg/kg; that for `Cc1ccc(C(C)C)c(OCCN2CCN(c3cccc(C(F)(F)F)c3)CC2)c1` [B.1079, 3-[2-(4-α,α,α-trifluoro-m-tolylpiperazin-1-yl)ethoxy]-p-cymene monohydrochloride] was > 1000 mg/kg; that for `CC(=O)c1ccc(N2CCN(CCOc3cc(C)ccc3C(C)C)CC2)cc1` [B.1105, 3-[2-(4-p-acetylphenylpiperazin-1-yl)ethoxy]-p-cymene hydrochloride] was ~540 mg/kg.
On the same count and under the same terms, the value for `COc1ccc(N2CCN(CCOc3cc(C)ccc3C(C)C)CC2)cc1` [B.1115, 3-[2-(4-p-methoxyphenylpiperazin-1-yl)ethoxy]-p-cymene dihydrochloride] was > 1000 mg/kg; that for `Cc1ccc(C(C)C)c(OCCN2CCN(c3ccc(Cl)cc3C)CC2)c1` [B.1152, 3-[2-4-(4-chloro-2-methyl)phenylpiperazine-1-yl)ethoxy]-p-cymene hydrochloride] was > 1000 mg/kg.
With `COc1ccccc1N1CCN(CCOc2cc(C)ccc2C(C)C)CC1` [B.1168, 3-[2-(4-o-methoxyphenylpiperazin-1-yl)-ethoxy]-p-cymene dihydrochloride], the 50% lethal dose (LD50) at 336 h was > 1000 mg/kg.
In the case of `Cc1ccc(C(C)C)c(OCCN2CCN(c3ccc(Cl)c(Cl)c3)CC2)c1` [B.1184, 3-[2-4-(3,4-dichloro)phenylpiperazin-1-yl)ethoxy]-p-cymene hydrochloride], the median lethal dose (LD50) at 336 h is > 1000 mg/kg.
As for `Cc1ccc(C(C)C)c(OCCN2CCN(c3ccccc3O)CC2)c1` [B.1338], the LD50 at 336 h was > 1000 mg/kg.
Same read-out and setting: next, `CCCOc1ccccc1N1CCN(CCOc2cc(C)ccc2C(C)C)CC1` [B.1358]: > 1000 mg/kg.

For the next data set, the system named is toxicity of norepinephrine. Description: Adrenolytic activity in vivo in rats (protection against norepinephrine lethality). To be noted: Rattus norvegicus, oral 30 minutes before i.v. norepinephrine 0.4 mg.kg^-1, dose protecting 50 percent of animals. As for the experimental part:
4. Determination of the Adrenolytic Activity "In Vivo" in Rats
The intravenous injection of norepinephrine (0.4 mg.kg^-1) in wake rats causes the death of 100 percent of the animals. The prior administration of a substance with an alpha-blocking property makes it possible to reduce this toxicity.
The products claimed were administered orally 30 minutes before the intravenous injection of norepinephrine.
These are expressed in the form of the 50% effective dose (ED50), i.e. the dose, in mg.kg^-1, which protects 50 percent of the animals.
`CCOc1ccccc1N1CCN(CCOc2cc(C)ccc2C(C)C)CC1` [B 1178, 3-[2-(4-o-ethoxyphenylpiperazin-1-yl)ethoxy]-p-cymene dihydrochloride] displayed an ED50 of 2 mg/kg.
In the case of `Cc1ccc(C(C)C)c(OCCN2CCN(c3ccccc3Cl)CC2)c1` [B 1299, 3-[2-(4-o-chlorophenylpiperazin-1-yl)ethoxy]-p-cymene hydrochloride], the ED50 is 10 mg/kg.
The same measure, in the same setting: the value for `COc1ccc(N2CCN(CCOc3cc(C)ccc3C(C)C)CC2)c(OC)c1` [B 1362] was 37.3 mg/kg.
On the same count and under the same terms, the value for `Cc1ccc(C(C)C)c(OCCN2CCN(c3ccc(F)cc3)CC2)c1` [B.1055, 3-[2-(4-p-fluorophenylpiperazin-1-yl)ethoxy]-p-cymene dihydrochloride] was > 100 mg/kg; that for `Cc1ccc(C(C)C)c(OCCN2CCN(c3ccccc3)CC2)c1` [B.1057, 3-[2-(4-phenylpiperazin-1-yl)ethoxy]-p-cymene dihydrochloride] was > 100 mg/kg.
Regarding `Cc1ccc(C(C)C)c(OCCN2CCN(c3cccc(C(F)(F)F)c3)CC2)c1` [B.1079, 3-[2-(4-α,α,α-trifluoro-m-tolylpiperazin-1-yl)ethoxy]-p-cymene monohydrochloride], the ED50 was > 100 mg/kg.
The same measure, in the same setting: next, `CC(=O)c1ccc(N2CCN(CCOc3cc(C)ccc3C(C)C)CC2)cc1` [B.1105, 3-[2-(4-p-acetylphenylpiperazin-1-yl)ethoxy]-p-cymene hydrochloride]: 200 mg/kg.
Same read-out and setting: next, `COc1ccc(N2CCN(CCOc3cc(C)ccc3C(C)C)CC2)cc1` [B.1115, 3-[2-(4-p-methoxyphenylpiperazin-1-yl)ethoxy]-p-cymene dihydrochloride]: 200 mg/kg; `Cc1ccc(C(C)C)c(OCCN2CCN(c3ccc(Cl)cc3C)CC2)c1` [B.1152, 3-[2-4-(4-chloro-2-methyl)phenylpiperazine-1-yl)ethoxy]-p-cymene hydrochloride]: > 100 mg/kg.
`COc1ccccc1N1CCN(CCOc2cc(C)ccc2C(C)C)CC1` [B.1168, 3-[2-(4-o-methoxyphenylpiperazin-1-yl)-ethoxy]-p-cymene dihydrochloride] returned an ED50 of 3 mg/kg.
On to `Cc1ccc(C(C)C)c(OCCN2CCN(c3ccc(Cl)c(Cl)c3)CC2)c1` [B.1184, 3-[2-4-(3,4-dichloro)phenylpiperazin-1-yl)ethoxy]-p-cymene hydrochloride], for which the ED50 is > 100 mg/kg.
`Cc1ccc(C(C)C)c(OCCN2CCN(c3ccccc3O)CC2)c1` [B.1338] had an ED50 of 6.4 mg/kg.
On the same count and under the same terms, next, `CCCOc1ccccc1N1CCN(CCOc2cc(C)ccc2C(C)C)CC1` [B.1358]: 2.1 mg/kg.

The same data set, now with this note: oral.
For the compound `CCOc1ccccc1N1CCN(CCOc2cc(C)ccc2C(C)C)CC1` [B 1178, 3-[2-(4-o-ethoxyphenylpiperazin-1-yl)ethoxy]-p-cymene dihydrochloride], the “protection against the toxicity of norepinephrine (in words)” value is on record as “excellent protection against the toxicity of norepinephrine”.
Still for that read-out and setting: next, `Cc1ccc(C(C)C)c(OCCN2CCN(c3ccccc3Cl)CC2)c1` [B 1299, 3-[2-(4-o-chlorophenylpiperazin-1-yl)ethoxy]-p-cymene hydrochloride]: “excellent protection against the toxicity of norepinephrine”.
Same read-out and setting: the value for `COc1ccccc1N1CCN(CCOc2cc(C)ccc2C(C)C)CC1` [B.1168, 3-[2-(4-o-methoxyphenylpiperazin-1-yl)-ethoxy]-p-cymene dihydrochloride] was “excellent protection against the toxicity of norepinephrine”; that for `CCCOc1ccccc1N1CCN(CCOc2cc(C)ccc2C(C)C)CC1` [B.1358] was “excellent protection against the toxicity of norepinephrine”.

A further data set addresses T1, postsynaptic alpha-adrenergic receptors (Rattus norvegicus, UniProt P43140).
T1 construct: contraction of the isolated vas deferens; from tissue; host or cells: isolated rat vas deferens
T1 sequence (P43140 1-466): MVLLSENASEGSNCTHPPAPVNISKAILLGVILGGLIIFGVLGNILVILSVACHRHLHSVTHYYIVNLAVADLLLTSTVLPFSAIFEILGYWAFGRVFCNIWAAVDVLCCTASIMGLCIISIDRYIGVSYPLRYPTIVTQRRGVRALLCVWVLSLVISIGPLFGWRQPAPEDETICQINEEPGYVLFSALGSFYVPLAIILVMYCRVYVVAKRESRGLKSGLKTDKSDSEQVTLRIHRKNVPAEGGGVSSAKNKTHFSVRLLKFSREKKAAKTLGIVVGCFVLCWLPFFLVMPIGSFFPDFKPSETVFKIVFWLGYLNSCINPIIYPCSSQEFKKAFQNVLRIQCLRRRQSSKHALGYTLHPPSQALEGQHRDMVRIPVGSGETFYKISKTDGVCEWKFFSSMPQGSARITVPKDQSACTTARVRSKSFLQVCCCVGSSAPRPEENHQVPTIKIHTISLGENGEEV
The data set can be described thus: Alpha-blocking activity on isolated rat vas deferens. The class given is cell-based. To be noted: norepinephrine contraction, -log of product concentration at which norepinephrine concentration must be doubled, read-out: pA2 (converted). The text has this: 2. Determination of the Alpha-Blocking Activity on Isolated Rat Vas Deferens
Stimulation of the postsynaptic alpha-adrenergic receptors by norepinephrine causes contraction of the isolated vas deferens. The aim is to find the product concentration in whose presence the norepinephrine concentration must be doubled in order to obtain the same effect as in the absence of said product.
The logarithm of this concentration, with its sign changed, represents the pA2 value of the product.
Turning to `CCOc1ccccc1N1CCN(CCOc2cc(C)ccc2C(C)C)CC1` [B 1178, 3-[2-(4-o-ethoxyphenylpiperazin-1-yl)ethoxy]-p-cymene dihydrochloride], the Kb was 72.4 nM.
The same measure, in the same setting: the value for `Cc1ccc(C(C)C)c(OCCN2CCN(c3ccccc3Cl)CC2)c1` [B 1299, 3-[2-(4-o-chlorophenylpiperazin-1-yl)ethoxy]-p-cymene hydrochloride] was 347 nM; that for `COc1ccc(N2CCN(CCOc3cc(C)ccc3C(C)C)CC2)c(OC)c1` [B 1362] was > 1000 nM.
Same read-out and setting: the value for `Cc1ccc(C(C)C)c(OCCN2CCN(c3ccc(F)cc3)CC2)c1` [B.1055, 3-[2-(4-p-fluorophenylpiperazin-1-yl)ethoxy]-p-cymene dihydrochloride] was 468 nM.
On to `Cc1ccc(C(C)C)c(OCCN2CCN(c3ccccc3)CC2)c1` [B.1057, 3-[2-(4-phenylpiperazin-1-yl)ethoxy]-p-cymene dihydrochloride], for which the Kb was 398 nM.
On the same count and under the same terms, the value for `Cc1ccc(C(C)C)c(OCCN2CCN(c3cccc(C(F)(F)F)c3)CC2)c1` [B.1079, 3-[2-(4-α,α,α-trifluoro-m-tolylpiperazin-1-yl)ethoxy]-p-cymene monohydrochloride] was > 1000 nM; that for `CC(=O)c1ccc(N2CCN(CCOc3cc(C)ccc3C(C)C)CC2)cc1` [B.1105, 3-[2-(4-p-acetylphenylpiperazin-1-yl)ethoxy]-p-cymene hydrochloride] was 537 nM.
On the same count and under the same terms, the value for `COc1ccc(N2CCN(CCOc3cc(C)ccc3C(C)C)CC2)cc1` [B.1115, 3-[2-(4-p-methoxyphenylpiperazin-1-yl)ethoxy]-p-cymene dihydrochloride] was 288 nM; that for `COc1ccccc1N1CCN(CCOc2cc(C)ccc2C(C)C)CC1` [B.1168, 3-[2-(4-o-methoxyphenylpiperazin-1-yl)-ethoxy]-p-cymene dihydrochloride] was 195 nM.
For the compound `Cc1ccc(C(C)C)c(OCCN2CCN(c3ccccc3O)CC2)c1` [B.1338], the Kb was 40.7 nM.
With `CCCOc1ccccc1N1CCN(CCOc2cc(C)ccc2C(C)C)CC1` [B.1358], the Kb was > 1000 nM.

For the next data set, the system named is arterial pressure. Description: Norepinephrine-induced arterial hyperpressure in anesthetized rabbits. To be noted: Oryctolagus cuniculus, iv, norepinephrine i.v., 50% inhibition of increase in arterial pressure, read-out: Arterial pressure ID50. The class given is in vivo. As for the experimental part: as §1, §2
The efficacy is assessed by the 50% inhibitory dose (ID50), i.e. the dose which inhibits the increases in arterial and ureteral pressures by 50 percent.
As for `CCOc1ccccc1N1CCN(CCOc2cc(C)ccc2C(C)C)CC1` [B 1178, 3-[2-(4-o-ethoxyphenylpiperazin-1-yl)ethoxy]-p-cymene dihydrochloride], the ED50 was determined as 3.9 mg/kg.
Consider `Cc1ccc(C(C)C)c(OCCN2CCN(c3ccccc3O)CC2)c1` [B.1338], for which the ED50 was determined as 19 mg/kg.
Still for that read-out and setting: next, `CCCOc1ccccc1N1CCN(CCOc2cc(C)ccc2C(C)C)CC1` [B.1358]: 5 mg/kg.
